Measured values published in patent publication US20230053473A1, “ENHANCING EXPRESSION OF LINE-1 ENCODED ORF2P FOR CANCER THERAPEUTICS” (The Johns Hopkins University, priority 2019, published 2023).
pIC50: −log10 of the molar value.

Key:
HeLa cells = test: FANCD2 nuclear foci quantification in EdU-labeled HeLa cells; format: cell-based; conditions: S phase (EdU+) cells; p=1.7×10^−8
Experimental: (§1) We used either Tet-On TP53^KD cells expressing Luciferase or LINE-1 or HeLa cells transfected with doxycycline-inducible LINE-1 plasmids (pDA007, pDA025, pDA027, pDA033, pDA019) and stably-selected with puromycin for 1-2 weeks. Positive controls were treated with either 6 mM hydroxyurea for 4 hours or 200 ng/mL doxorubicin for 2 hours. 100,000 cells were plated on cover slips and treated with 1000 ng/ml doxycycline for 72 hours. EdU was added for 2 hours and cells were pre-treated with 0.5% Triton X-100 for 5 min, fixed with 3.7% paraformaldehyde for 10 minutes, then permeabilized with 0.5% NP-40 for 10 minutes. EdU Click-iT reaction (ThermoFisher) was performed following manufacturer's instructions. Slides were blocked (1% BSA/PBS-Glycine, 30 minutes) and incubated with polyclonal rabbit FANCD2 (1:1000, Novus Biologicals), rabbit 53BP1 (1:500, Novus Biologicals), or mouse γH2A.X (1:1000, Millipore) for 1 hour at room temperature and then anti-rabbit Alexa Fluor 488 for FANCD2 (1:200, ThermoFisher) and anti-rabbit Alexa Fluor 488 (1:2000, ThermoFisher) and anti-mouse Alexa Fluor 555 (1:2000, ThermoFisher) for 53BP1 and γH2A.X, respectively. Slides were imaged at low magnification with the same equipment as described above with key methodological differences. […] Foci were quantified using a previously published method in MATLAB. […]

[1] = test system: Tet-On TP53KD cells expressing LINE-1; test: qRT-PCR of LINE-1-induced IFN response with nucleoside reverse transcriptase inhibitors; format: cell-based; conditions: 5 μM for 72 hours
Experimental: 250,000 Tet-On TP53^KD cells expressing Luciferase or LINE-1 were plated in T25 flasks with 1 ng/mL doxycycline added and treated with 5 μM zalcitabine (ddC) or 5 μM didanosine (ddI) for 72 hours. Cells were lysed and RNA were extracted using Quick-RNA MicroPrep kit (Zymo Research).
cDNA was generated using the iScript kit (Biorad, Hercules, Calif.) following RNA extraction using the Quick-RNA Microprep kit (Zymo). Primers were designed using Primer3 and tested against cDNA to ensure single bands were generated in the PCR. Real-time PCR was performed for 40 cycles (98C×15 seconds, 60C×30 seconds) using SSOAdvanced 2X Master mix (Biorad) on the MyIQ cycler (Biorad). Fold-change expression was determined by the 2^−ΔΔCt method.

TP53KD cells = test: γH2A.X and 53BP1 nuclear foci quantification in TP53KD cells; format: cell-based; conditions: data not shown
Experimental: as §1

PKR = PKR (Homo sapiens, UniProt P19525); conditions: in vitro, cited from earlier work
PKR, sequence (P19525 whole entry): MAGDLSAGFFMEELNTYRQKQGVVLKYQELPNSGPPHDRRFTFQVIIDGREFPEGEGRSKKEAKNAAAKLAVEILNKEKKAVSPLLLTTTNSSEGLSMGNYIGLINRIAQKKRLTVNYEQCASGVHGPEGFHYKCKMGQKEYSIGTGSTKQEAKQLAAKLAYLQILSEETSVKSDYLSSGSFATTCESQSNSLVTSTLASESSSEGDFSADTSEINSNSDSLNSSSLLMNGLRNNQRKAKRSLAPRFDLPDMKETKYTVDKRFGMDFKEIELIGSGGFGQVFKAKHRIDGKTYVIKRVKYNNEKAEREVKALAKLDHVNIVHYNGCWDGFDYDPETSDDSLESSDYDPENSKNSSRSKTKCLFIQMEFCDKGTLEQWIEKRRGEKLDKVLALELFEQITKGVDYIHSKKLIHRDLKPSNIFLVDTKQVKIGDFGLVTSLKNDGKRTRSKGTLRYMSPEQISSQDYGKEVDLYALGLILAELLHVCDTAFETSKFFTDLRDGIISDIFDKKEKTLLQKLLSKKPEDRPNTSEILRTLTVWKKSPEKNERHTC

ORF2p = test: Western blot of ORF2p accumulation in RPE cells with doxycycline-controlled LINE-1 expression construct; format: cell-based, human
Text: (§2) FIGS. 13A and 13B. […] (Day 1 and 3 show little effect. The effect is sustained at day 10. Higher doses of the drug are toxic). The cells used are RPE cells that have a doxycycline (Dox) controlled LINE-1 expression construct. (13A.) Western blot showing ORF2p, ORF1p, and tubulin levels on day 5. Addition of Dox induces LINE-1 expression. Addition of PKRi enhances relative ORF2p expression levels. (13B.) Quantification of ORF2p expression (relative to tubulin) by Western blot as a function PKRi inhibitor dose on different days of the experiment.
Cells were lysed in RIPA buffer with protease/phosphatase inhibitor (cat#5872, Cell Signaling Technology, Danvers, Mass.) or Laemmli Sample Buffer (cat#1610747, Biorad, Hercules, Calif.) by sonication. PAGE was carried out with manufacturer-recommended buffers on 4-20% or 7.5% Mini TGX Gels (Biorad), NuPAGE 4-12% BisTris gels, or NuPAGE 3-8% Tris-Acetate gels (Thermo). Semi-dry transfers were carried out for Biorad gels or NuPAGE BisTris gels at 2.5 A for 5-15 minutes using the Trans-Blot-Turbo (Biorad). Wet transfers were carried out for Tris-Acetate gels at 30V overnight. All blocking was performed with Odyssey Blocking Buffer (Licor). Primary antibodies were incubated with membranes overnight at 4C, then infrared-conjugated secondaries (Licor) were added 1:10,000 and imaged on a Licor Odyssey Scanner. Quantifications were carried out using Image Studio v4.0. Blots were stripped with Reblot Plus Strong Solution (Millipore Sigma).
(§3) (Day 1 and 3 show little effect. The effect is sustained at day 10. Higher doses of the drug are toxic.) The finding is significant as proof-of-principle that specific cellular pathways are involved in uncoupling the expression of LINE-1 encoded proteins. As such increasing ORF2p intracellularly in tumors can cause tumor cell death.

RPE cells = format: cell-based
Text: as §2, §3

luciferase(+) cells = test: Clonogenic growth assay, luciferase(+) control cells; format: cell-based
Experimental: (§4) Viability was determined by clonogenic growth or CellTiter-Glo assay (Promega, Madison, Wis.). WT RPE were assessed by clonogenic growth by transfecting 1e5 cells with 2 μg eGFP (pDA083) or 3 μg LINE-1 (pDA077) plasmid to achieve equimolar ratios. Cells were split to 10 cm growth dishes and selected with G418 24 hours later. In Tet-On assays, 500 cells were plated and doxycycline was added to activate transgene expression. For MMC sensitivity experiments, cells were treated with 100 pM, 1 nM, 10 nM, and 100 nM for 24 hours on day 2 after plating. In VE-821 sensitivity, cells were treated with 1 μM drug or DMSO vehicle throughout the duration of the experiment. For assays in CRISPR knockout cells, knockout cell pools were generated by infecting TP53^KD Tet-On RPE cells with lentivirus encoding either non-targeting control or a gene targeting guide and selecting with puromycin for 1 week. For all assays, after 10-14 days of L1 or control expression, colonies were washed with PBS and fixed (6% gluteraldehyde, 0.5% crystal violet) for 10 minutes. Plates were rinsed in water and air dried, then imaged on a flatbed scanner. Colonies with >50 cells were counted.

LINE-1(+) RPE cells = test: Clonogenic growth assay, LINE-1(+) cells; format: cell-based
Experimental: as §4

FANCD2 = test: Western blot of FANCD2 monoubiquitination; format: cell-based; conditions: NTC-treated cells; 24-hour treatment with 1 μg/ml
Text: FIGS. 5A-5H. The Fanconi Anemia (FA) pathway is essential in p53-deficient cells. 5A) Network plot of 75 DNA repair genes identified in the screen. Edges indicate known physical interactions. This network is enriched for Fanconi anemia genes (blue nodes). 5B) Model of FA complexes responding to a DNA lesion (vertical line) encountered by a replication fork (blue line=genomic DNA; green line=nascent DNA). Genes are color coded based on the performance of their knockouts in the screen. 5C) Western blot of FANCD2 response to 24-hour treatment with 1 μg/ml mitomycin C (MMC). Cells are treated with FA member sgRNAs or non-targeting-control (NTC). FANCD2 monoubiquitination is assessed as the ratio of FANCD2-L (long) to FANCD2-S (short) band intensities (relative L:S ratio). The ratio is graphed relative to NTC, MMC-treated cells. nd=not determined. Uncropped blot is shown in the Source Data. 5D) Clonogenic growth assay of LINE-1(+) RPE cells with sgRNAs targeting the same genes as in (C). n=3 independent experiments. P value calculated with a one-sided T test. […] Quantification to the right of n=2 independent experiments ±SEM. […] Quantification below of n=2 independent experiments ±SEM. Effect of wildtype LINE-1 is statistically significant as assessed by ANOVA (p=0.0143). […] Right, quantification of FANCD2 foci in EdU+HeLa cells. […] 5H) Left, γH2A.X and 53BP1 focus quantification in EdU+TP53^KD cells. […]

RPA2 = test: Western blot of chromatin-bound RPA2; format: cell-based; conditions: RPE, chromatin-bound protein fractions; 1 μM
Experimental: FIGS. 6A-6G. LINE-1 activity induces replication stress. 6A) Median count of sgRNAs targeting replication stress signaling genes ATRIP and the 9-1-1 complex (HUS1 and RAD1) during the screen. Error bars indicate 95% confidence intervals. 6B) Clonogenic assay of LINE-1(+) RPE cells (induced with 1 μg/ml doxycycline) with CRISPR-knockout of ATRIP compared to non-targeting-control (NTC). Error bars indicate SEM, n=3 independent experiments. P value is calculated with an unpaired two-sided T test. 6C) Clonogenic assay of LINE-1(+) RPE cells (induced with 1 μg/ml doxycycline) with drug inhibition of ATR kinase by 1 μM VE-821 compared to vehicle (DMSO). Error bars indicate SEM, n=3 independent experiments. P value is calculated with an unpaired two-sided T test. 6D) Western blot of RPA2 occupancy on chromatin induced by LINE-1 compared to luciferase control after 72 hours of expression in RPE. Chromatin-bound protein lysates were used. […] Relative signal intensity for n=2 independent experiments ±SEM is quantified. […] Statistical significance is assessed by ANOVA (p=0.0007). […]
Cells were lysed in RIPA buffer with protease/phosphatase inhibitor (cat#5872, Cell Signaling Technology, Danvers, Mass.) or Laemmli Sample Buffer (cat#1610747, Biorad, Hercules, Calif.) by sonication. […] Quantifications were carried out using Image Studio v4.0. […]

Molecule: NC(=O)NO [hydroxyurea]
- number of FANCD2 foci (HeLa cells): increased the number of FANCD2 foci

Molecule: Nc1ccn([C@H]2CC[C@@H](CO)O2)c(=O)n1 [zalcitabine]
- effect on LINE-1-induced IFN response [1]: attenuated the IFN response

Molecule: COc1cccc2c1C(=O)c1c(O)c3c(c(O)c1C2=O)C[C@@](O)(C(=O)CO)C[C@@H]3O[C@H]1C[C@H](N)[C@H](O)[C@H](C)O1 [doxorubicin]
- DNA damage foci (γH2A.X and 53BP1) over the cell cycle (TP53KD cells): continue to accumulate

Molecule: Nc1ncc2[nH]cnc2n1 [2-AP, 2-aminopurine]
- potency relative to C16 (PKR; competes for ATP at the ATP binding site of PKR): less potent than C16

Molecule: O=c1[nH]cnc2c1ncn2[C@H]1CC[C@@H](CO)O1 [didanosine]
- effect on LINE-1-induced IFN response [1]: attenuated the IFN response

Molecule: O=C1Nc2ccc3ncsc3c2C1=Cc1cnc[nH]1 [PKRi, 6,8-dihydro-8-(1H-imidazol-5-ylmethylene)-7H-pyrrolo[2,3-g]benzothiazol-7-one]
- accumulation of ORF2p (relative to ORF1p and tubulin) (ORF2p; 0.1 uM, by day 6 of treatment): increases the accumulation of ORF2p
- effect on ORF2p accumulation (ORF2p; Day 1 and 3): little effect
- accumulation of ORF2p (relative to ORF1p and tubulin) (ORF2p; by day 5 of treatment, Dox-induced RPE cells): dose-dependent increases the accumulation of ORF2p
- effect on ORF2p accumulation (ORF2p; day 10): sustained
- toxicity (RPE cells): toxic
- pIC50 (PKR): ~6.70

Molecule: pladienolide B [PLA-B]
- reduction of luciferase(+) clonogenic growth (luciferase(+) cells; same PLA-B dose as for LINE-1(+) cells): 6.8%
- increased sensitivity of LINE-1(+) vs luciferase(+) cells (LINE-1(+) RPE cells; P=0.044): 4.1 fold
- fewer colonies of LINE-1(+) cells (LINE-1(+) RPE cells; same PLA-B dose as for luciferase(+) cells): 27.8%

Molecule: CS(=O)(=O)c1ccc(-c2cnc(N)c(C(=O)Nc3ccccc3)n2)cc1 [VE-821]
- effect on viability in luciferase(+) cells (luciferase(+) cells; same dose as in LINE-1(+) cells, data not shown): no effect on viability
- sensitization of cells to LINE-1 (ATR inhibition) (LINE-1(+) RPE cells; 1 μM vs DMSO vehicle): sensitized cells to LINE-1

Molecule: CO[C@@]12[C@H](COC(N)=O)C3=C(C(=O)C(C)=C(N)C3=O)N1C[C@@H]1N[C@@H]12 [MMC, mitomycin C]
- sensitivity of LINE-1(+) cells compared to luciferase-expressing controls (LINE-1(+) RPE cells; dose-response clonogenic assay, 24 hours treatment): 1.9 fold
- FANCD2 monoubiquitination (FANCD2-Ub) (FANCD2): induced FANCD2-Ub
- chromatin-bound RPA2 (RPA2): induced chromatin-bound RPA2
